Measured values: patent US12496329B2, “Methods of using and compositions including an incretin analog” (Eli Lilly and Company, priority 2021, dated 2025)
Marks after values point to notes of the source that are not given here.

Assay: MAD study in individuals with diabetes: pharmacodynamics (OGTT, glucose, HbA1c, body weight, appetite VAS)
Format: in vivo, human
Design: OGIS Index, change from baseline / Disposition Index, change from baseline: unit not given here
Details: for Disposition Index, change from baseline / HOMA2-B, change from baseline / HOMA2-IR, change from baseline / Insulin Sensitivity Matsuda Index, change from baseline / Insulinogenic Index, change from baseline / OGIS Index, change from baseline / OGTT C-peptide AUC (0-2 hr), change from baseline / OGTT GCG AUC (0-2 hr), change from baseline / OGTT glucose AUC (0-2 hr), change from baseline / OGTT insulin AUC (0-2 hr), change from baseline / Daily mean plasma glucose, change from baseline / HbA1c, change from baseline: 1.5 mg Dula
Excerpt: Studies are designed to evaluate the safety, tolerability, PD and PK of the GGG tri-receptor agonist (SEQ ID NO:1) in individuals with diabetes. The MAD study is a randomized, investigator- and participant-blind, placebo-controlled, multiple-ascending dose, single-site study conducted in individuals with diabetes (i.e., females or males aged 20-70 years, inclusive, with T2DM for at least 3 months and HbA1c at lead-in and screening of ≥7.0% and ≤10.5% and treated with diet and exercise alone or a stable dose of metformin for at least 3 months prior to screening, with stable body weight for 3 months prior to randomization and with a BMI of 23-50 kg/m^2 at screening).
Dose escalation of the GGG tri-receptor agonist is assessed over 12 weeks in cohorts with a starting dose of 0.5 mg. One cohort of 13 individuals is administered 0.5 mg for 12 weeks. A second cohort of 13 individuals is administered 1.5 mg for 12 weeks. A third cohort of 15 individuals is administered 3.0 mg for 12 weeks. A fourth cohort of 15 individuals is administered 3.0 mg for 4 weeks and then administered 6.0 mg for 8 weeks. A fifth cohort of 16 individuals is administered 3.0 mg for 2 weeks, administered 6.0 mg for 2 weeks, administered 9.0 mg for 4 weeks, and then administered 12 mg for 4 weeks. Alternate dose increment steps may be introduced based on emerging safety and tolerability data from the preceding cohorts, and the dose increment steps can be reduced. As a non-limiting example, in Cohort 4, escalation from starting dose of 3 mg may occur via a step-through dose of 4.5 mg before attaining 6 mg, in Cohort 5, escalation from starting dose of 3 to 12 mg may occur via an additional step through dose level of 4.5 mg, prior to the planned doses 6 and 9 mg. In addition to these proposed alternate regimens in Cohort 4 and Cohort 5, planned dose for escalation between cohorts and within cohorts may be further reduced if warranted by safety or tolerability data.
C-peptide, glucagon, glucose and insulin are measured for an oral glucose tolerance test (OGTT) during the study using methods known in the art for each of the analytes. In addition, HbA1c is measured at Days 1, 29, 57, 78 and 85, as well as at Week 16. The following parameters are derived from the OGTT to assess insulin resistance and β cell function: Homeostatic model assessment (HOMA)-B, HOMA-IR, insulinogenic index, insulin sensitivity (Matsuda Index) and oral glucose insulin sensitivity (OGIS).
Insulin sensitivity is calculated as per the below equation: […]
Insulin sensitivity (Matsuda Index) is calculated as per the below equation: […]
Disposition index is calculated as (IGI*ISI).
OGIS is calculated as per the below equation: […]
Satiety VAS is measured after fasting on Days 1, 8, 15, 22, 29, 36, 43, 50, 57, 64, 71, 78 and 80, as well as at Week 16. Appetite sensations are assessed using a VAS for parameters of hunger, fullness, satiety and prospective food intake, and an overall appetite score is calculated as described above in the SAD study.

[1] = 1.5 mg dulaglutide, 12-week treatment

dulaglutide
Disposition Index, change from baseline (Day 2): 0.0812
HOMA2-B, change from baseline (Day 2): 31.2
HOMA2-IR, change from baseline (Day 2): 0.360
Insulin Sensitivity Matsuda Index, change from baseline (Day 2): −0.0208
Insulinogenic Index, change from baseline (Day 2): 0.119
OGIS Index, change from baseline (Day 2): 23.5
OGTT C-peptide AUC (0-2 hr), change from baseline (Day 2): 879 pmol·h/L
OGTT GCG AUC (0-2 hr), change from baseline (Day 2): -1.21 pmol·h/L
OGTT glucose AUC (0-2 hr), change from baseline (Day 2): -9.10 mmol·h/L
OGTT insulin AUC (0-2 hr), change from baseline (Day 2): 322 pmol·h/L
Daily mean plasma glucose, change from baseline (Day 3): −2.60* mmol/L
HbA1c, change from baseline (Day 29): −0.646%
Disposition Index, change from baseline (Day 30): 0.0866
HOMA2-B, change from baseline (Day 30): 42.2
HOMA2-IR, change from baseline (Day 30): 0.480
Insulin Sensitivity Matsuda Index, change from baseline (Day 30): −0.476
Insulinogenic Index, change from baseline (Day 30): 0.130
OGIS Index, change from baseline (Day 30): 19.4
OGTT C-peptide AUC (0-2 hr), change from baseline (Day 30): 1350 pmol·h/L
OGTT GCG AUC (0-2 hr), change from baseline (Day 30): -4.52 pmol·h/L
OGTT glucose AUC (0-2 hr), change from baseline (Day 30): -10.6 mmol·h/L
OGTT insulin AUC (0-2 hr), change from baseline (Day 30): 519 pmol·h/L
Daily mean plasma glucose, change from baseline (Day 31): −3.89* mmol/L
HbA1c, change from baseline (Day 57): −0.997%
Daily mean plasma glucose, change from baseline (Day 59): −3.21* mmol/L
HbA1c, change from baseline (Day 78): −1.07%
Disposition Index, change from baseline (Day 79): 0.0481
HOMA2-B, change from baseline (Day 79): 25.9
HOMA2-IR, change from baseline (Day 79): 0.600
Insulin Sensitivity Matsuda Index, change from baseline (Day 79): −1.14
Insulinogenic Index, change from baseline (Day 79): 0.105
OGIS Index, change from baseline (Day 79): 38.1
OGTT C-peptide AUC (0-2 hr), change from baseline (Day 79): 354 pmol·h/L
OGTT GCG AUC (0-2 hr), change from baseline (Day 79): -1.28 pmol·h/L
OGTT glucose AUC (0-2 hr), change from baseline (Day 79): -8.44 mmol·h/L
OGTT insulin AUC (0-2 hr), change from baseline (Day 79): 188 pmol·h/L
Daily mean plasma glucose, change from baseline (Day 80): −3.73* mmol/L
HbA1c, change from baseline (Day 85): −0.960%
HbA1c, change from baseline (Day 106): −0.538%
fullness scores [1]: increase from baseline
hunger scores [1]: decrease from baseline
prospective food consumption scores [1]: greatest decreases from baseline
satiety scores [1]: increase from baseline
maximum decrease from baseline in mean body weight (1.5 mg, 12-weeks treatment): 1.3 kg
decrease from baseline in mean waist circumference (1.5 mg, Day 85): 4.9 cm
